Our source for the Km values is patent US20040039530A1, “Pharmacokinetic tool and method for predicting metabolism of a compound in a mammal” (priority 2003, published 2004).

The term Km denotes the substrate concentration at which the rate is half of its maximum.

A short description of the series: Hepatocyte assay: concentration versus time data of parent compound, fitted for Km, Vmax and Kd. The method, then: Traditionally, initial experiments were performed to get a “ball park” number around the Km, then additional studies performed “near” that concentration. A data analyst, or fitting expert, then took the data and determined the Km and Vmax. Some expertise is required to be able to interpret the initial studies and then to fit the data to determine Km. […] Especially preferred concentrations are 0.4, 2, 10, 50, 125 and 250 μM.
Equation 1 is the equation that incorporates transport and makes the assumption that the changes in concentration with time cannot be fully explained using the Michaelis-Menten equation alone. Kd·C is the transport term where Kd is the first order rate constant and C is the concentration outside of the hepatocyte or cell. dC/dt is the rate of metabolism, Vmax is the maximum possible rate of metabolism and Km is the Michaelis-Menten constant defined as concentration where dC/dt equals ½*Vmax. [formula]
The best fit lines and simulated data are obtained using a minimization algorithm capable of determining Vmax, Km, and Kd values that provide minimum deviation of the simulated data from the experimental data. In this example the minimization algorithms were completed using the computer based application, Kinetica®.
Briefly, the minimization algorithms uses the main function “mrqmin” that relies on several other functions to complete the analysis. This function assignees different initial conditions to fitted variables and picks the best set of results based on the minimal value of the computed “sum of squares”. Some statistical information can be collected in this routine as well. The “mrqmin” function performs one iteration of Marquardt method. Algorithmically, it is the same as listed in Numerical Recipes with modifications to parameter input, output and exchanges, and some modifications to intermediate computations. The “mrqmin” calls “mrqcof” function for some intermediate computations. […]
Goodness of fit is determined by evaluation of % CV, and percent unchanged parent compounds remaining at 240 minutes at 0.4 μM.

Turning to `Oc1ccc2c3c1O[C@H]1[C@@H](O)CC[C@@]4(O)[C@@H](C2)N(CC2CCC2)CC[C@]314` [Nalbuphine], the Km reads like this: (Initial concentrations, hepatocyte assay) 12.2 µM; (Std (standardized) concentrations, hepatocyte assay) 10.9 µM; (determined by non-linear fitting and minimization, compound-specific initial concentrations (Table 9)) 10 to 50 µM.
